# Experimental data: patent publication US11274073B2, “TRPV1 modulator compounds” (ANTALGENICS, S.L., priority 2017, dated 2022)
# Key:
# rat TRPV1 channel [1] = molecular target: T1, rat TRPV1 channel (Rattus norvegicus, UniProt O35433); assay: Calcium microfluorometry assay on TRPV1-SH-SY5Y cells, single concentration 10 μM; type: cell-based; conditions: for TRPV1 activation at 10 μM (% ± SD): compound 10 μM, Fluo-4 NW fluorescence, Cap (10 μM capsaicin) = 100%; for TRPV1 blockage at 10 μM (% ± SD): compound 10 μM before stimulation with 10 μM capsaicin, RR (10 μM Ruthenium Red) = 100%
# T1 construct: expressed in transfected cells; host or cells: SH-SY5Y (human neuroblastoma) stably expressing rat TRPV1, under puromycin selection
# T1 sequence (O35433 whole entry): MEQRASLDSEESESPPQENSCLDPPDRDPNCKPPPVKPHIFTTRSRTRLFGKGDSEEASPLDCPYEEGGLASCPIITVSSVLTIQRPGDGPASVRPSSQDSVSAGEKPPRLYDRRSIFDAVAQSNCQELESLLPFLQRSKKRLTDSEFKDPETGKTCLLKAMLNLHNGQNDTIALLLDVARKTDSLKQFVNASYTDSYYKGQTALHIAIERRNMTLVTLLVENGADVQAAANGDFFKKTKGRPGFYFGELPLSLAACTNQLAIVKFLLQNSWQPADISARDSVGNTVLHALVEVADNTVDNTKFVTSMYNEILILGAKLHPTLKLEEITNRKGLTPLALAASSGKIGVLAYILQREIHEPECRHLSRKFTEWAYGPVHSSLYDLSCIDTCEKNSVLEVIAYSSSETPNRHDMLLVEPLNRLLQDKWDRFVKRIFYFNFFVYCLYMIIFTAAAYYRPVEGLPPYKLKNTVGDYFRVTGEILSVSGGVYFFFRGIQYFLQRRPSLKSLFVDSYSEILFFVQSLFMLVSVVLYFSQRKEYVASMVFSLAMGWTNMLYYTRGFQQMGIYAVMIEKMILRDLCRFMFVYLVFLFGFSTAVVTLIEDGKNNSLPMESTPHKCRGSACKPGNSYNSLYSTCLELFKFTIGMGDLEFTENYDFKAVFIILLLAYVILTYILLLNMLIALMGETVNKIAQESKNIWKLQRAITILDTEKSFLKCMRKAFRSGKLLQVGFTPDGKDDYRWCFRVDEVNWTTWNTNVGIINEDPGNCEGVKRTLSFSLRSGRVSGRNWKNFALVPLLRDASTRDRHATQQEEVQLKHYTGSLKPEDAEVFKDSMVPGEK
# Protocol: (§1) The activity of the compounds was determined on TRPV1 expressing cells (TRPV1-SH-SY5Y) by Calcium microfluorometry assay.
# (§2) SH-SY5Y cells stably expressing rat TRPV1 channel (SH-SY5Y-TRPV1) were grown in Earle's minimum essential medium (MEM) containing 10% (v/v) of FCS, 1% nonessential amino acids, 2 mM L-glutamine, 100 μg/ml streptomycin, 100 U/ml penicillin, and 0.4 μg/ml puromycin in a humidity-controlled incubator with 5% CO2 and at 37° C. For fluorescence assays, cells expressing TRPV1 channel (TRPV1-SH-SY5Y) were seeded in 96-well plates (Corning Incorporated, Corning, N.Y.) at a cell density of 40,000 cells 2 days before treatment. The day of treatment the medium was replaced with 100 μL of the dye loading solution Fluo-4 NW supplemented with probenecid 2.5 mM. After incubation at 37° C. in a humidified atmosphere of 5% CO2 for 60 minutes, plates were transferred to a fluorescence plate reader (Polastar Omega BMG Labtech). The baseline fluorescence of Fluo-4 dye ([…]) was recorded for 4 cycles. […] The antagonist (10 μM Ruthenium Red for TRPV1) was added for the blockade. The changes in fluorescence intensity were recorded during 10 cycles more.
# rat TRPV1 channel [2] = molecular target: T1, rat TRPV1 channel; assay: Dose response measurements (EC50/IC50), calcium microfluorometry on TRPV1-SH-SY5Y cells; type: cell-based; conditions: n=3 in 3 independent experiments; for EC50: TRPV1 activation; for IC50: TRPV1 blockage
# Protocol: as §1, §2
# Normalized responses (%) versus log [μM] were adjusted to a non-linear fit with variable slope, a four-parameter dose-response curve Y=100/(1+10^((LogEC50−X)*HillSlope)) where […] or just dose-response curve Y=100/(1+10^((LogEC50−X))). EC50 are expressed with 95% confident interval followed by r^2 for regression adjustment. All data are expressed as mean±standard error of the mean […]. Each condition was assessed by triplicate (n=3) in 3 independent experiments (N=3).
# C57-mice = assay: CFA-induced paw inflammation model of inflammatory pain, thermal hyperalgesia (paw withdrawal latency); type: in vivo; conditions: 24 h after CFA
# Protocol: Data are given as mean±SEM n=6. 2-way ANOVA with Bonferroni post hoc test. *P<0.05; **P<0.01, ***P<0.001, […].
# One of the compounds with higher potency (Ex-37) was selected to be tested in a model of inflammatory pain. C57-mice (≈30 g) were used for the study. C57BL/6 were obtained from Janvier, France. Complete Freund's adjuvant (CFA) emulsion (1:1 oil/saline, 0.5 mg/ml) was injected into the plantar surface (10 μl) of the right hind paw (Garcia-Martinez et al., 2006). 24 h after CFA injection, compound Ex-37 was administered intravenously (at 1 mg/kg, 3 mg/kg or 10 mg/kg) or intraplantar (at 10 mg/kg, 30 mg/kg or 100 mg/kg)) on the right hind paw. Thermal hyperalgesia was monitored 24 h after CFA injection and up to 2 h after administering the compound with an Ugo Basile Dynamic Plantar Aesthesiometer as reported previously (Garcia-Martinez et al., 2006). In brief, mice were habituated to an apparatus consisting of individual Perspex boxes on an elevated glass table. A mobile radiant heat source was located under the table and focused on the hind paw. Paw withdrawal latencies were defined as the time taken by the mouse to remove its hind paw from the heat source. A cutoff point of 25 s was set to prevent tissue damage.
SMILES,TRPV1 activation at 10 μM (% ± SD) (rat TRPV1 channel [1]),EC50 (rat TRPV1 channel [2]),TRPV1 blockage at 10 μM (% ± SD) (rat TRPV1 channel [1]),other results
"COc1cc(CNC(=O)COC(=O)CC/C(C)=C/CC/C(C)=C/CC/C=C(\C)CCC=C(C)CCC=C(C)C)ccc1O (stereo in doubt) [Ex-52, (4E,8E,12E,16E)-2-((4-hydroxy-3-methoxybenzyl)-amino)-2-oxoethyl 4,8,13, 17,21-pentamethyldocosa-4,8,12,16,20-pentaenoate]",79.31 ± 6.41%,0.04 ± 0.008 µM,–,–
"CC(C)=CCCC(C)=CCC/C(C)=C/CC/C=C(\C)CC/C=C(\C)CCC(=O)OCC(=O)NCc1ccc(O)c(O)c1 (stereo in doubt) [Ex-56, (4E,8E,12E,16E)-2-((3,4-dihydroxybenzyl)amino)-2-oxoethyl 4,8,13,17,21-pentamethyldocosa-4,8,12,16,20-pentaenoate]",83.71 ± 6.00%,0.015 ± 0.02 µM,–,–
"COc1cc(CNC(=O)COC(=O)/C=C(\C)CCC=C(C)C)ccc1O [Ex-32, (E)-2-((4-hydroxy-3-methoxy-benzyl)amino)-2-oxoethyl 3,7-dimethylocta-2,6-dienoate]",75.90 ± 2.49%,0.28 ± 0.08 µM,–,–
"CCCCCCCCCCCC(=O)OCC(=O)NCc1ccc(O)c(OC)c1 [Ex-36, 2-((4-hydroxy-3-methoxy-benzyl)amino)-2-oxoethyl dodecanoate]",74.80 ± 8.30%,0.08 ± 0.03 µM,–,–
"CCCCCCCCCCCC(=O)OCC(=O)NCc1cc(OC)c(O)cc1I [Ex-37, 2-((4-hydroxy-2-iodo-5-methoxybenzyl)amino)-2-oxoethyl dodecanoate]",–,–,43.18 ± 10.07%,"IC50 (rat TRPV1 channel [2]): 0.86 ± 0.51 µM; antinociceptive effect in the thermal hyperalgesia test, intraplantar (C57-mice; intraplantar at 10, 30 or 100 mg/kg on the right hind paw, FIG. 2): showed antinociceptive effects; antinociceptive effect in the thermal hyperalgesia test, intravenous (C57-mice; intravenously at 1, 3 or 10 mg/kg, FIG. 1): showed antinociceptive effects"
"CC(C)=CCC/C(C)=C/C(=O)OCC(=O)NCc1ccc(O)c(O)c1 [Ex-54, (E)-2-((3,4-dihydroxybenzyl)amino)-2-oxoethyl 3,7-dimethylocta-2,6-dienoate]",77.42 ± 5.17%,0.11 ± 0.02 µM,–,–
"CC(C)=CCC/C(C)=C/C(=O)OCC(=O)NCc1cc(O)c(O)cc1I [Ex-55, (E)-2-((4,5-dihydroxy-2-iodobenzyl)amino)-2-oxoethyl 3,7-dimethylocta-2,6-dienoate]",–,–,104.22 ± 12.65%,IC50 (rat TRPV1 channel [2]): 6.82 ± 1.38 µM
"CCCCC/C=C\C/C=C\C/C=C\C/C=C\CCCC(=O)OCC(=O)NCCc1cc(O)c(O)cc1I [Ex-65, (5Z,8Z,11Z,14Z)-2-((4,5-dihydroxy-2-iodophenethyl)-amino)-2-oxoethyl icosa-5,8,11,14-tetraenoate]",–,–,6.71 ± 2.18%,–
"N.N.N.N.N.N.N.N.N.N.N.N.N.N.[Cl-].[Cl-].[Cl-].[Cl-].[Cl-].[Cl-].[O-2].[O-2].[Ru+3].[Ru+3].[Ru+4] [RR, Ruthenium Red, reference compound]",–,–,100%,–
